Experiments:
DMPK [1] = assay: DMPK knockdown by transfected antisense oligonucleotides in DM1 C15 myotubes at 0.5 nM and 50 nM; format: cell-based; conditions: 72 hours, qPCR; for Percent DMPK Reduction: relative to vehicle control; for Normalized DMPK Remaining: relative to vehicle control = 1.00
Procedure, shortened: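 DMPK remaining was measured by qPCR 72 h post-transfection, normalized to lipofectamine-only vehicle wells (=1.00). Oligonucleotides were delivered at 0.5 and 50 nM final to DM1 C15 myoblasts differentiated seven days into myotubes, in triplicate.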

DMPK [2] = assay: Dose-responsive DMPK reduction in DM1 C15 myotubes (EC-50); format: cell-based; conditions: DM1 C15 differentiated myotubes, 72 hours; for EC50: transfection with Lipofectamine MessengerMax, 0.046-100 nM; for Percent DMPK reduction at 100 nM: transfection
Procedure: Eighteen oligonucleotides from Example 7 were selected to be evaluated for their ability to reduce DMPK expression in a dose-responsive manner. DM1 C15 myoblasts were prepared as in Example 7 to yield differentiated myotubes in 96-well microplates. After seven days of differentiation, cells were transfected with individual oligonucleotides using Lipofectamine MessengerMax. Each oligonucleotide was tested in triplicate at concentrations of 0.046 nM, 0.137 nM, 0.412 nM, 1.235 nM, 3.704 nM, 11.11 nM, 33.33 nM, and 100 nM by 3-fold serial dilutions using 0.3 μL of Lipofectamine MessengerMax per well.
Following addition of oligonucleotide, cells were incubated for 72 hours prior to harvesting for total RNA. cDNA was synthesized from the total RNA extracts and qPCR was performed to determine expression levels of DMPK using a commercially available Taqman probeset in technical quadruplicate. All qPCR data were analyzed using a traditional ΔΔCT method and were normalized to a plate-based negative control that comprised of cells treated with vehicle control (0.3 μL/well Lipofectamine MessengerMax without any oligonucleotide). Data for each oligonucleotide to was fit to sigmoidal curve in order to determine an effective concentration of each oligonucleotide that provided a half-maximal response (EC-50).

mouse muscle tissue = conditions: cited from earlier work
C2C12 murine myotubes = conditions: in vitro, phage display; cited from earlier work
DMPK [3] = assay: Dose response of antisense oligonucleotides in DMPK knockdown in human DM1 myotubes; format: cell-based
Excerpt: FIGS. 18A-18C depict non-limiting schematics showing the dose response of selected antisense oligonucleotides in DMPK knockdown in human DM1 myotubes. ControlDMPK-ASO was used as control. […] Statistical analysis: One-way ANOVA with Tukey's HSD post-hoc test vs. control DMPK-ASO treatment; *p<0.05, **p<0.01, ***p<0.001, ****p<0.0001.
(§1) The antisense oligonucleotides listed in Table 11 were further assessed to identify oligos that are safe in vivo (e.g., as indicated by low immunogenicity as measured by cytokine induction), and further based on manufacturability and secondary structure considerations. Three antisense oligonucleotides from Table 11, […] (SEQ ID NO: 310, DMPK-ASO-1), […] (SEQ ID NO: 320, DMPK-ASO-2), and […] (SEQ ID NO: 278, DMPK-ASO-3) were selected. These oligonucleotides were then further evaluated for their ability to reduce DMPK expression in DM1 myotubes and NHP myotubes in a dose-responsive manner. The tool compound (control DMPK-ASO) was used as control.

DMPK [4] = assay: DMPK expression in RD cells treated with free or transfected DMPK-targeting oligonucleotides; format: cell-based; conditions: free (gymnotic) or transfected, 3 days
Procedure: The duration of treatment was 3 days. DMPK-targeting oligonucleotides were delivered to the cells as free oligonucleotides (gymnotic uptake, “free”) or with transfection reagent (“trans”).
DMPK-targeting oligonucleotides (e.g., ASO) were tested in rhabdomyosarcoma (RD) cells for knockdown of DMPK transcript expression. RD cells were cultured in a growth medium of DMEM with glutamine, supplemented with 10% FBS and penicillin/streptomycin until nearly confluent. Cells were then seeded into a 96 well plate at 20K cells per well and were allowed to recover for 24 hours. Cells were then treated with free DMPK-targeting oligonucleotides or by transfection of the oligonucleotides using 0.3 μL per well of Lipofectamine MessengerMAX transfection reagent. After 3 days, total RNA was collected from cells, cDNA was synthesized and DPMK expression was measured by qPCR.

DMPK [5] = assay: Dose response of antisense oligonucleotides in DMPK knockdown in NHP myotubes; format: cell-based, non-human primate
Excerpt: FIGS. 19A-19B depict non-limiting schematics showing the dose response of selected antisense oligonucleotides in DMPK knockdown in non-human primate (NHP) DM1 myotubes. Control DMPK-ASO was used as control.
as §1

Row | Substance | Percent DMPK Reduction (DMPK [1]; 0.5 nM oligonucleotide) | Normalized DMPK Remaining (DMPK [1]; 0.5 nM oligonucleotide) | Percent DMPK Reduction (DMPK [1]; 50 nM oligonucleotide) | Normalized DMPK Remaining (DMPK [1]; 50 nM oligonucleotide) | EC50 (DMPK [2]) | Percent DMPK reduction at 100 nM (DMPK [2]) | specificity for binding to heart and skeletal muscle tissue (mouse muscle tissue; after intravenous injection in mice, reduced binding to liver, kidney, and brain) | binding to mouse muscle tissue (mouse muscle tissue; in vivo) | binding to C2C12 cells (C2C12 murine myotubes) | DMPK knockdown in DM1 myotubes (DMPK [3]) | DMPK expression level relative to PBS-treated cells (DMPK [4]) | DMPK knockdown in NHP myotubes (DMPK [5])
1 | 272 (CUCUGCCGCAGGGACAGCCG; chemistry not given here) [compound 272] | 37.09% | 0.63 | 93.59% | 0.06 | 0.42 nM | 93.66% | – | – | – | – | – | –
2 | 278 (CCAUCUCGGCCGGAAUCCGC; chemistry not given here) [compound 278] | 20.50% | 0.79 | 59.76% | 0.40 | 0.44 nM | 95.42% | – | – | – | – | – | –
3 | 280 (UUGCCAUAGGUCUCCGCCGU; chemistry not given here) [compound 280] | 36.30% | 0.64 | 60.12% | 0.40 | 0.37 nM | 93.70% | – | – | – | – | – | –
4 | 286 (GCUUCAUCUUCACUACCGCU; chemistry not given here) [compound 286] | 31.44% | 0.69 | 51.78% | 0.48 | 0.03 nM | 64.06% | – | – | – | – | – | –
5 | 288 (CAGGGACAGCCGCUGGAACU; chemistry not given here) [compound 288] | 32.09% | 0.68 | 58.84% | 0.41 | 6.04 nM | 90.59% | – | – | – | – | – | –
6 | 293 (GAAUGUCCGACAGUGUCUCC; chemistry not given here) [compound 293] | 30.09% | 0.70 | 63.41% | 0.37 | 0.07 nM | 97.23% | – | – | – | – | – | –
7 | 294 (CGUUCCAUCUGCCCGCAGCU; chemistry not given here) [compound 294] | 33.74% | 0.66 | 68.72% | 0.31 | 0.19 nM | 89.97% | – | – | – | – | – | –
8 | 299 (GCAGGAUGUUGUCGGGUUUG; chemistry not given here) [compound 299] | 44.39% | 0.56 | 78.03% | 0.22 | 0.168 nM | 89.77% | – | – | – | – | – | –
9 | 301 (UGUUGUCGGGUUUGAUGUCC; chemistry not given here) [compound 301] | 21.00% | 0.79 | 42.19% | 0.58 | 0.21 nM | 93.95% | – | – | – | – | – | –
10 | 310 (GCGUAGAAGGGCGUCUGCCC; chemistry not given here) [compound 310] | 39.53% | 0.60 | 77.91% | 0.22 | 24.6 nM | 95.13% | – | – | – | – | – | –
11 | 313 (GGACGAUCUUGCCAUAGGUC; chemistry not given here) [compound 313] | 29.82% | 0.70 | 48.97% | 0.51 | 3.59 nM | 92.18% | – | – | – | – | – | –
12 | 316 (AGCAGGAUGUUGUCGGGUUU; chemistry not given here) [compound 316] | 41.05% | 0.59 | 74.02% | 0.26 | 0.227 nM | 85.81% | – | – | – | – | – | –
13 | 320 (CCCAGCGCCCACCAGUCACA; chemistry not given here) [compound 320] | 37.93% | 0.62 | 67.82% | 0.32 | 5.45 nM | 63.69% | – | – | – | – | – | –
14 | 346 (GACAGAACAACGGCGAACAG; chemistry not given here) [compound 346] | 21.41% | 0.79 | 70.49% | 0.30 | 0.08 nM | 94.32% | – | – | – | – | – | –
15 | 362 (GCUGUCCCGGAGACCAUCCC; chemistry not given here) [compound 362] | 22.57% | 0.77 | 66.27% | 0.34 | 3.27 nM | 93.07% | – | – | – | – | – | –
16 | ASSLNIA [muscle-specific heptapeptide identified by phage display] | – | – | – | – | – | – | improved specificity for binding to heart and skeletal muscle tissue | bound to mouse muscle tissue in vivo | bound to C2C12 murine myotubes in vitro | – | – | –
17 | CCAUCUCGGCCGGAAUCCGC (chemistry not given here) [SEQ ID NO: 278, DMPK-targeting antisense oligonucleotide] | – | – | – | – | – | – | – | – | – | dose-dependently reducing DMPK | reduced | dose-dependently reducing DMPK
18 | CCCAGCGCCCACCAGUCACA (chemistry not given here) [SEQ ID NO: 320, DMPK-targeting antisense oligonucleotide] | – | – | – | – | – | – | – | – | – | dose-dependently reducing DMPK | reduced | dose-dependently reducing DMPK
19 | GCGUAGAAGGGCGUCUGCCC (chemistry not given here) [SEQ ID NO: 310, DMPK-targeting antisense oligonucleotide] | – | – | – | – | – | – | – | – | – | dose-dependently reducing DMPK | reduced | dose-dependently reducing DMPK
20 | SKTFNTHPQSTP [12 amino acid muscle-targeting peptide identified by phage display] | – | – | – | – | – | – | – | – | improved binding to C2C12 cells relative to the ASSLNIA | – | – | –

Reference: US20230144436A1, “MUSCLE TARGETING COMPLEXES AND USES THEREOF FOR TREATING MYOTONIC DYSTROPHY” (Dyne Therapeutics, Inc., priority 2020, published 2023)
